Source: PMC3262391 (Clinical pharmacology : advances and applications, 2011)
Where two headings read alike, the source gives them in different places.

Key:
[1] = test system: CYP2C9; details: in vitro studies; cited from earlier work
[2] = Simvastatin study: adverse events; format: in vivo, healthy subjects; details: after coadministration of saxagliptin and simvastatin
[3] = test system: CYP2C19; details: in vitro studies; cited from earlier work
[4] = excreted in urine; cited from earlier work
[5] = test system: CYP2C9; details: in vitro studies; cited from earlier work; remark: listed apart in the source
[6] = Diltiazem extended-release study: adverse events; format: in vivo, healthy subjects
[7] = test system: CYP3A4; details: in vitro studies; cited from earlier work
[8] = Simvastatin study: two-way pharmacokinetic interaction, plasma pharmacokinetics
[9] = Ketoconazole study: adverse events; format: in vivo, healthy subjects
[10] = format: in vivo, healthy subjects
[11] = Ketoconazole study: two-way pharmacokinetic interaction, plasma pharmacokinetics; format: in vivo, healthy subjects
[12] = test system: P-glycoprotein; details: in vitro data; no reference given; cited from earlier work
[13] = test system: CYP2D6; details: in vitro studies; cited from earlier work
[14] = test system: CYP3A4; details: in vitro studies; cited from earlier work; remark: listed apart in the source
[15] = compared with saxagliptin 10 mg alone
[16] = compared with saxagliptin alone
[17] = saxagliptin 10 mg + simvastatin 40 mg relative to simvastatin alone
[18] = saxagliptin 100 mg + ketoconazole versus ketoconazole alone

## N#C[C@@H]1C[C@@H]2C[C@@H]2N1C(=O)[C@@H](N)C12CC3CC(CC(O)(C3)C1)C2 [Saxagliptin, saxagliptin, reference compound]
[1]
  induction of CYP2C9: do not induce
[2]
  serious adverse events or deaths: no serious adverse events or deaths
[3]
  inhibition of CYP2C19: neither saxagliptin nor 5-hydroxy saxagliptin inhibits
[4]
  renal clearance: approximately 230 mL/min
[5]
  inhibition of CYP2C9: neither saxagliptin nor 5-hydroxy saxagliptin inhibits
[6]; after coadministration of saxagliptin and diltiazem extended-release
  serious adverse events or deaths: no serious adverse events or deaths
[6]; by treatment: diltiazem extended-release 360 mg alone, saxagliptin 10 mg + diltiazem extended-release 360 mg, saxagliptin 10 mg alone
  first-degree atrioventricular block, subjects: in no subjects
[7]
  induction of CYP3A4: do not induce
[8]; human, in vivo, 10 mg
  AUC: 153 ng·h/mL
  Cmax: 44 ng/mL
  Tmax: 1 h
[8]; saxagliptin 10 mg + simvastatin 40 mg relative to saxagliptin alone
  increase of AUCτ by simvastatin: 12%
[9]; after coadministration of saxagliptin and ketoconazole
  serious adverse events or deaths: no serious adverse events or deaths
[10]; [15]
  increase of AUC0-t by diltiazem extended-release: 113%
  increase of AUC∞ by diltiazem extended-release: 109%
  increase of Cmax by diltiazem extended-release: 63%
[10]; human, plasma, oral, 10 mg
  AUC0-t: 152 ng·h/mL
  AUC(0-inf): 158 ng·h/mL
  Cmax: 53 ng/mL
  Tmax: 0.5 h
  half-life: 2.38 h
[10]; versus saxagliptin alone
  increase of mean t½ by diltiazem extended-release: 0.92 h
[11]; [16]
  increase of AUC0-t by ketoconazole: 148%
  increase of AUC∞ by ketoconazole: 145%
  increase of Cmax by ketoconazole: 62%
[11]; human, plasma, 100 mg
  AUC0-t: 1920 ng·h/mL
  AUC(0-inf): 1970 ng·h/mL
  Cmax: 546 ng/mL
  Tmax: 1 h
  half-life: 2.37 h
[11]; versus saxagliptin alone
  increase of mean t½ by ketoconazole: 1.1 h
[12]
  substrate for the efflux transporter P-glycoprotein: weak substrate
[13]
  inhibition of CYP2D6: neither saxagliptin nor 5-hydroxy saxagliptin inhibits
[14]
  inhibition of CYP3A4: neither saxagliptin nor 5-hydroxy saxagliptin inhibits

## CCC(C)(C)C(=O)O[C@H]1C[C@@H](C)C=C2C=C[C@H](C)[C@H](CC[C@@H](O)C[C@@H](O)CC(=O)O)[C@H]21 [Simvastatin acid, simvastatin acid]
[8]; human, in vivo, 40 mg
  AUC: 17.9 ng·h/mL
[8]; [17]
  decrease of Cmax by saxagliptin: unchanged
  increase of AUCτ by saxagliptin: 16%
[8]; simvastatin 40 mg administered alone (day 8), median (minimum, maximum)
  Tmax: 4.00 (2.00, 8.00) h

## CC(=O)N1CCN(c2ccc(OCC3COC(Cn4ccnc4)(c4ccc(Cl)cc4Cl)O3)cc2)CC1 (stereo not drawn) [Ketoconazole, ketoconazole]
[9]; ketoconazole alone treatment group, 10/16
  headache, subjects: 62.5%
[9]; mild, beginning on day 8, lasting 11 days, following ketoconazole alone
  subjects discontinued due to adverse event of increased transaminases: One subject
[11]; human, plasma, 200 mg
  AUC: 42300 ng·h/mL
  Cmax: 7040 ng/mL
  Tmax: 2 h
[11]; [18]
  decrease of AUCτ by saxagliptin: 13%
  decrease of Cmax by saxagliptin: 16%
